{"source": "PubChem BioAssay AID2060902", "about": "(Molecular Pharmacology Branch, DTP, NCI, 2025);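 note: spheroids exposed to agents for seven days before readout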", "tested_on": "485368-065-R3-J5-PDC spheroids with HUVEC/MSC, viability", "assay": "Anticancer human tumor 485368-065-R3-J5-PDC patient-derived pancreatic carcinoma cell line growth inhibition [RAS]", "settings": "for IC50: curve of first compound; for viability, T/C: stronger effect = lower value", "description": "RAS pathway inhibitors in Combinations in Complex Spheroids\nA high-throughput screen of multi-cell type tumor spheroids was designed to identify active combinations of RAS pathway inhibitors and targeted small molecules. Complex spheroids include a stromal component modeled by human endothelial cells (HUVEC) and fibroblasts modeled by human mesenchymal stem cells (MSCs). The concentration ranges selected for each drug and investigational agent were based upon clinically achievable concentrations if the clinical Cmax of the agent was known.\nCompounds. The drugs and investigational agents: abemaciclib (NSC768073), cobimetinib (NSC768068), divarasib (GDC6063, NSC841802), docetaxel (NSC628503), GDC-1971 (RLY-1971, NSC841576), gemcitabine (NSC613327), inavolisib (NSC800729), ipatasertib (NSC767898), KB-0742 (NSC834161), MRTX-1133 (NSC836407), osimertinib (NSC779217), RMC-4630 (NSC839698), RMC-6236 (NSC851965), RMC-6291 (NSC852671), Ro-3306 (NSC812927), sapanisertib (NSC764658), SN-38 (NSC673596), staurosporine (NSC755774), SY5609 (NSC837396), and tovorafenib (DAY101, NSC766906), were obtained from the National Cancer Institute (NCI) Developmental Therapeutics Program Chemical Repository. The FDA-approved anticancer drug set is available from the NCI Developmental Therapeutics Program. […] The stock solutions were prepared in dimethyl sulfoxide (DMSO, Sigma-Aldrich, St. Louis, MO, cat. D2650) at 800-fold the tested concentration and stored at -70 degrees C prior to their use. All drugs and investigational agents were tested over a range starting from a high concentration at or near the clinical Cmax and decreasing in half-log increments. If the clinical Cmax for an agent had not been determined, the highest concentration tested was 10 microM.\nCell Culture. All cells were maintained in an incubator at 37 degrees C and 5% CO2 with 95% humidity. The PDC lines were cultured according to standard operating procedures established by the NCI PDMR. All PDCs were thawed and cultured in Matrigel-coated flasks prepared with a working solution of 1X Ham's F-12 nutrient mix, without supplementation (Invitrogen, Waltham, MA, cat. 11765054), 100 U/mL penicillin-streptomycin (Invitrogen, cat. 15140122), and 2.5% Matrigel (Corning Inc., Corning, NY, cat. 354248) for the first three passages. The 362531-283-R-J2-PDC and 782815-120-R-J1-PDC lines were cultured in 6C/Colon 1B media, which includes advanced DMEM/F-12 (Thermo Fisher Scientific, cat. 12634028), 10 mM HEPES (Thermo Fisher Scientific, cat. 15630080), 1X GlutaMAX supplement (Thermo Fisher Scientific, cat. 35050061), 0.1 mg/mL primocin (InvivoGen, San Diego, CA, cat. ant-pm-2), 10% defined fetal bovine serum, heat inactivated (HyClone Laboratories Inc., Logan, UT, cat. SH30070.03HI), 50% L-WRN conditioned media (ATCC, cat. CRL-3276), 1.25 mM N-Acetyl-L-cysteine (Sigma-Aldrich, cat. A9165), 10 mM nicotinamide (Sigma-Aldrich, cat. N0636), 1X B-27 supplement (Thermo Fisher Scientific, cat. 17504044), 1X N-2 supplement (Thermo Fisher Scientific, cat. 17502048), 50 ng/mL human EGF (Thermo Fisher Scientific, cat. PHG0311), and 10 microM Y-27632 dihydrochloride (Tocris Bioscience, cat. 1254). The K12877-001-R-J1-PDC line was cultured in 6I media, which includes all 6C/Colon 1B media plus 10 ng/mL human FGF-10 (PeproTech, cat. 100-26), 1 ng/mL human FGF-2 (PeproTech, cat. 100-18B), 1 µM prostaglandin E2 (Tocris Bioscience, cat. 2296), […] hydrocortisone (Sigma-Aldrich, cat. H4001), and […] bovine insulin (Sigma-Aldrich, cat. I6634). The K86415-001-R-J1-PDC line was cultured in 6D media, which includes all 6C/Colon 1B media components minus the L-WRN conditioned media. The 485176-168-R4-J1-PDC was cultured in PANC media, which includes all 6C/Colon 1B media plus 100 ng/mL human FGF-10 (PeproTech, cat. 100-26), 500 nM SB-431542 (Selleckchem, cat. S1067), and 10 nM gastrin (Tocris Bioscience, cat. 3006). […]", "data": [{"smiles": "CC1(O)CCCC1n1c(=O)c(C(F)F)cc2cnc(NC3CCN(S(C)(=O)=O)CC3)nc21", "note": "(configuration not stated) + C#Cc1c(F)ccc2cc(O)cc(-c3ncc4c(N5CC6CCC(C5)N6)nc(OCC56CCCN5CC(F)C6)nc4c3F)c12", "values": [{"measurement": "IC50", "setting": "second compound 0.0316 µM", "value": 562, "unit": "nM"}, {"measurement": "IC50", "setting": "second compound 0.1 µM", "value": 314, "unit": "nM"}, {"measurement": "IC50", "setting": "second compound 0.316 µM", "value": 504, "unit": "nM"}, {"measurement": "IC50", "setting": "second compound 1 µM", "value": 344, "unit": "nM"}, {"measurement": "IC50", "setting": "second compound 3.16 µM", "value": 131, "unit": "nM"}, {"measurement": "IC50", "setting": "second compound 10 µM", "value": "< 31.6", "unit": "nM"}, {"measurement": "viability, T/C", "setting": "second compound 0.0316 µM, first compound 0.0316 µM", "value": 94.1, "unit": "%"}, {"measurement": "viability, T/C", "setting": "second compound 0.0316 µM, first compound 0.1 µM", "value": 62.8, "unit": "%"}, {"measurement": "viability, T/C", "setting": "second compound 0.0316 µM, first compound 0.316 µM", "value": 53.2, "unit": "%"}, {"measurement": "viability, T/C", "setting": "second compound 0.0316 µM, first compound 1 µM", "value": 46.5, "unit": "%"}, {"measurement": "viability, T/C", "setting": "second compound 0.0316 µM, first compound 3.16 µM", "value": 39.4, "unit": "%"}, {"measurement": "viability, T/C", "setting": "second compound 0.0316 µM, first compound 10 µM", "value": 11.2, "unit": "%"}, {"measurement": "viability, T/C", "setting": "second compound 0.1 µM, first compound 0.0316 µM", "value": 103, "unit": "%"}, {"measurement": "viability, T/C", "setting": "second compound 0.1 µM, first compound 0.1 µM", "value": 66.4, "unit": "%"}, {"measurement": "viability, T/C", "setting": "second compound 0.1 µM, first compound 0.316 µM", "value": 44.9, "unit": "%"}, {"measurement": "viability, T/C", "setting": "second compound 0.1 µM, first compound 1 µM", "value": 40.8, "unit": "%"}, {"measurement": "viability, T/C", "setting": "second compound 0.1 µM, first compound 3.16 µM", "value": 39.9, "unit": "%"}, {"measurement": "viability, T/C", "setting": "second compound 0.1 µM, first compound 10 µM", "value": 10.9, "unit": "%"}, {"measurement": "viability, T/C", "setting": "second compound 0.316 µM, first compound 0.0316 µM", "value": 84.6, "unit": "%"}, {"measurement": "viability, T/C", "setting": "second compound 0.316 µM, first compound 0.1 µM", "value": 71.1, "unit": "%"}, {"measurement": "viability, T/C", "setting": "second compound 0.316 µM, first compound 0.316 µM", "value": 46, "unit": "%"}, {"measurement": "viability, T/C", "setting": "second compound 0.316 µM, first compound 1 µM", "value": 39, "unit": "%"}, {"measurement": "viability, T/C", "setting": "second compound 0.316 µM, first compound 3.16 µM", "value": 47.1, "unit": "%"}, {"measurement": "viability, T/C", "setting": "second compound 0.316 µM, first compound 10 µM", "value": 11.9, "unit": "%"}, {"measurement": "viability, T/C", "setting": "second compound 1 µM, first compound 0.0316 µM", "value": 90, "unit": "%"}, {"measurement": "viability, T/C", "setting": "second compound 1 µM, first compound 0.1 µM", "value": 63.4, "unit": "%"}, {"measurement": "viability, T/C", "setting": "second compound 1 µM, first compound 0.316 µM", "value": 41, "unit": "%"}, {"measurement": "viability, T/C", "setting": "second compound 1 µM, first compound 1 µM", "value": 44.2, "unit": "%"}, {"measurement": "viability, T/C", "setting": "second compound 1 µM, first compound 3.16 µM", "value": 40.4, "unit": "%"}, {"measurement": "viability, T/C", "setting": "second compound 1 µM, first compound 10 µM", "value": 13.3, "unit": "%"}, {"measurement": "viability, T/C", "setting": "second compound 3.16 µM, first compound 0.0316 µM", "value": 65.8, "unit": "%"}, {"measurement": "viability, T/C", "setting": "second compound 3.16 µM, first compound 0.1 µM", "value": 46.8, "unit": "%"}, {"measurement": "viability, T/C", "setting": "second compound 3.16 µM, first compound 0.316 µM", "value": 38.8, "unit": "%"}, {"measurement": "viability, T/C", "setting": "second compound 3.16 µM, first compound 1 µM", "value": 34.4, "unit": "%"}, {"measurement": "viability, T/C", "setting": "second compound 3.16 µM, first compound 3.16 µM", "value": 35.8, "unit": "%"}, {"measurement": "viability, T/C", "setting": "second compound 3.16 µM, first compound 10 µM", "value": 9.18, "unit": "%"}, {"measurement": "viability, T/C", "setting": "second compound 10 µM, first compound 0.0316 µM", "value": 36.9, "unit": "%"}, {"measurement": "viability, T/C", "setting": "second compound 10 µM, first compound 0.1 µM", "value": 32.6, "unit": "%"}, {"measurement": "viability, T/C", "setting": "second compound 10 µM, first compound 0.316 µM", "value": 28.6, "unit": "%"}, {"measurement": "viability, T/C", "setting": "second compound 10 µM, first compound 1 µM", "value": 30.9, "unit": "%"}, {"measurement": "viability, T/C", "setting": "second compound 10 µM, first compound 3.16 µM", "value": 31.9, "unit": "%"}, {"measurement": "viability, T/C", "setting": "second compound 10 µM, first compound 10 µM", "value": 6.8, "unit": "%"}]}]}
